Broadly, the IC50 is the concentration that inhibits the measured activity by half. What is called Ki is a measure of affinity in units of concentration, obtained from inhibition or displacement.

The nature of data set [1]: Permeability of the compound in PBS at pH 7.4 by incubated for 18 hrs by […] assay based UV- spectroscopy. Type of data set: ADME. The settings on record: read-out: permeability. In general terms: PAMPA measures passive passage across an artificial lipid membrane.
Data set [2] deals with T1, Acetylcholinesterase (Electrophorus electricus, UniProt O42275). Kind of data set: Inhibition of electric eel AChE using acetylthiocholine iodide as substrate preincubated for 20 mins followed by substrate addition and measured after 20 mins by DTNB reagent based Ellman's method. In general terms: In Ellman's method for cholinesterases, released thiocholine reacts with DTNB.

The next data set has as its target Cholinesterase (Equus caballus, UniProt P81908). Kind of data set: Inhibition of equine serum BuChE using butyrylthiocholine iodide as substrate preincubated for 20 mins followed by substrate addition and measured after 20 mins by DTNB reagent based Ellman's method. Type of data set: cell-free.
Data set [3] concerns the target Cholinesterase (Equus caballus) (UniProt P81908). Briefly: Inhibition of equine serum BuChE using butyrylthiocholine iodide as substrate at 20 uM preincubated for 20 mins followed by substrate addition and measured after 20 mins by DTNB reagent based Ellman's method. It is filed as cell-free. The settings on record: time 40.0 min.
Data set [4] deals with Acetylcholinesterase (Electrophorus electricus) (UniProt O42275). Kind of data set: Inhibition of electric eel AChE using acetylthiocholine iodide as substrate at 20 uM preincubated for 20 mins followed by substrate addition and measured after 20 mins by DTNB reagent based Ellman's method. The note with it: time 40.0 min.
In data set [5] the target is T1, Acetylcholinesterase. Briefly: Inhibition of electric eel AChE incubated overnight by two fold serial dilution method.
Data set [6] has as its system Mus musculus. Briefly: Neuroprotective activity against amyloid beta 1-42 peptide induced ICR mouse assessed as decrease in cognitive function impairment at 5 mg/kg,po administration. It is filed as functional, organism-based.
The subject of the next data set is PC-12. Briefly: Neuroprotective activity against H2O2-induced injury in rat PC12 cells assessed as increase in cell viability at 25 uM preincubated for 3 hrs followed by H2O2 addition and measured after 24 hrs by MTT assay relative to control. It is filed as functional. The note with it: time 27 hrs. On the technique in general: Tetrazolium dyes change colour on reduction, which living cells bring about.

In data set [7] the test system is Mus musculus. Briefly: Neuroprotective activity against amyloid beta 1-42 peptide induced ICR mouse assessed as increase in number of neurons in hippocampus at 5 mg/kg,po administration by hematoxylin-eosin staining based microscopic analysis. Type of data set: functional, organism-based.
Data set [8] deals with T1, Acetylcholinesterase. Kind of data set: Inhibition of electric eel AChE assessed as inhibition constant using acetylthiocholine iodide as substrate by Lineweaver-Burk plot analysis.
For data set [9], the system named is Mus musculus. Kind of data set: Neuroprotective activity against amyloid beta 1-42 peptide induced ICR mouse assessed as reduction in latency at 5 mg/kg,po administration. Type of data set: functional, organism-based.

Each structure is given as a SMILES string. Active and inactive are the calls of the source. No cut-off for these calls is given here.

Chain of Cholinesterase (P81908 whole entry): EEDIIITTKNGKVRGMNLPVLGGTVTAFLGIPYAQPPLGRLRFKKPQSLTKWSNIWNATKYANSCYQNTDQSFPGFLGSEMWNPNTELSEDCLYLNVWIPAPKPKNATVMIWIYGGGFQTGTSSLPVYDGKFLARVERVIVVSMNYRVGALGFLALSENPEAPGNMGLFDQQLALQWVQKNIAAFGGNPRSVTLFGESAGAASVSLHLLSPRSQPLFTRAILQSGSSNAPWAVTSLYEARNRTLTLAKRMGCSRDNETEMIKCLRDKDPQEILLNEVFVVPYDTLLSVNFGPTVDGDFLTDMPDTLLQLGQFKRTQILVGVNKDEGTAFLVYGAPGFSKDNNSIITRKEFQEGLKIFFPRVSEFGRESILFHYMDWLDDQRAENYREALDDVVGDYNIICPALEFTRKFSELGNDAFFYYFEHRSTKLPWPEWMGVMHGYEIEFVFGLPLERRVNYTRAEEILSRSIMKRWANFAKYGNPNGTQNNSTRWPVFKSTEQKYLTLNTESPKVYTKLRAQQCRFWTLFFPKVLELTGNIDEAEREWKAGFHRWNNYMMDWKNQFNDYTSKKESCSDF
T1 sequence (O42275 whole entry): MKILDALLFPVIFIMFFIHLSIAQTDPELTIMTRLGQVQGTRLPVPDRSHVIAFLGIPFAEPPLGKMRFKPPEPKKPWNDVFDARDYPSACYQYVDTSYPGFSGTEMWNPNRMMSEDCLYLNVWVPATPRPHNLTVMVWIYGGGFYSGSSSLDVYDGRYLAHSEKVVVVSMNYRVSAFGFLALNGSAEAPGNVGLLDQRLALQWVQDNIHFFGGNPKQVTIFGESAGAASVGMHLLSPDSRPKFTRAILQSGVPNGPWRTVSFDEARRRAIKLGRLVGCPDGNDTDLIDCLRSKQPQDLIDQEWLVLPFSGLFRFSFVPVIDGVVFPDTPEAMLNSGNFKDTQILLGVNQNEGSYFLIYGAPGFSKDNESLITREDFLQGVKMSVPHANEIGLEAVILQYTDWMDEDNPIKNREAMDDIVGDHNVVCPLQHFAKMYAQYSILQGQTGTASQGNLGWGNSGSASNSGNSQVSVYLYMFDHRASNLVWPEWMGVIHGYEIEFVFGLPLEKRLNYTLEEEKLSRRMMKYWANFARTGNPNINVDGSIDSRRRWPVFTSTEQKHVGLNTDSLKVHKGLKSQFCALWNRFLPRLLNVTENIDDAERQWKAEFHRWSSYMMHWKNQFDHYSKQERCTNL
Chain of Acetylcholinesterase (Electrophorus electricus) (O42275 24-633 limits assumed): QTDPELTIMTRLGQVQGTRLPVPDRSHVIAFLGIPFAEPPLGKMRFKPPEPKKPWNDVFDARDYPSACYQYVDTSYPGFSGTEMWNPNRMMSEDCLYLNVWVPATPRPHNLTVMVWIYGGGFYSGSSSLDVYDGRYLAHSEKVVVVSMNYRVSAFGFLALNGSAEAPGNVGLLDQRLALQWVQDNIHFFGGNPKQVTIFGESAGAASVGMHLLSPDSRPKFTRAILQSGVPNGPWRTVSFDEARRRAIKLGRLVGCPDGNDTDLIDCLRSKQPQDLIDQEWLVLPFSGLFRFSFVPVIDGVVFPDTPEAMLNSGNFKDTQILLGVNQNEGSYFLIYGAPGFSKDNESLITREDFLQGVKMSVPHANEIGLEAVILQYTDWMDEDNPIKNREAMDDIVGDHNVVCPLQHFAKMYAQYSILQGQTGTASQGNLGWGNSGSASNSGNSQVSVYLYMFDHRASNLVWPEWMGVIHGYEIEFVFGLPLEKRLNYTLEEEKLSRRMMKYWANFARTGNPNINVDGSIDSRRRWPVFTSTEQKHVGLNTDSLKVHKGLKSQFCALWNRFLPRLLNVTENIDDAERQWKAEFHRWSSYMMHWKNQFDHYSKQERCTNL
Chain of Cholinesterase (Equus caballus) (P81908 whole entry): as the sequence (P81908 whole entry) above

On to `C[C@]12CC[C@H]3[C@@H](CCC4=CC(=O)CC[C@@]43C)[C@@H]1CC[C@@H]2O` [TESTOSTERONE], for which the Papp at 18 h in [1] is 1.8 ×10⁻⁶ cm/s.
As for `CN1C(=O)C(F)=C[C@@H]2[C@H]1C[C@H]2S(=O)(=O)F`, the IC50 on Acetylcholinesterase [2] was found to be 18.8 µM.
In the case of `O=C1N[C@@H]2C[C@@H](S(=O)(=O)F)[C@@H]2c2c(Cl)cccc21`, the IC50 at Cholinesterase came to 7.98 µM; on Acetylcholinesterase [2] it was 6.82 µM. Also, the inhibition result in [3] and in [4] was “Active” throughout.
As to `CN1C(=O)C(F)=C[C@@H]2[C@H]1C[C@H]2S(=O)(=O)N1CCC(Cc2ccc(F)cc2)CC1`, the IC50 against Acetylcholinesterase [5] stood at 8.35 µM; on Acetylcholinesterase [2], 7.87 µM.
The compound `CN1C(=O)c2ccccc2[C@@H]2[C@H]1C[C@H]2S(=O)(=O)F` returned an IC50 at Cholinesterase of 12 µM.
On the same count and under the same terms, the result for `Cc1ccc2c(c1)[C@H]1[C@H](S(=O)(=O)F)C[C@H]1NC2=O` reads 5.03 µM.
For the compound `CN1C(C(=O)Nc2ccccn2)=C(O)c2ccccc2S1(=O)=O` [PIROXICAM], the Papp at 18 h in data set [1] amounted to 9.9 ×10⁻⁶ cm/s.
With `CC1=C[C@@H]2[C@@H](C[C@@]2(Br)S(=O)(=O)F)N(C)C1=O`, it took 10.7 µM to reach half-maximal inhibition on Cholinesterase (IC50).
On to `CN1C(=O)C(F)=C[C@@H]2[C@H]1C[C@H]2S(=O)(=O)N1CCOCC1`, for which the IC50 at Acetylcholinesterase [5] was 1.8 µM; on Acetylcholinesterase [2], 1.3 µM.
On Cholinesterase, `O=C1N[C@@H]2C[C@@H](S(=O)(=O)F)[C@@H]2c2c(Br)cccc21` showed an IC50 of 3.3 µM. The inhibition result in data set [3] and in data set [4] was “Active” each time.
Consider `CN1C(=O)C(F)=C[C@@H]2[C@H]1C[C@H]2S(=O)(=O)CC1CCN(Cc2ccccc2F)CC1`, for which the results for the IC50 against Acetylcholinesterase [5] and on Acetylcholinesterase [2] were 5.06 µM and 5.38 µM, respectively.
In the case of `O=C1N[C@@H]2C[C@@H](S(=O)(=O)NCCC3CCN(Cc4ccccc4)CC3)[C@@H]2c2c(Br)cccc21`, in data set [1], the Papp at 18 h came out at 10 ×10⁻⁶ cm/s. For the same compound, the IC50 against Acetylcholinesterase [5] is 0.28 µM; at Acetylcholinesterase [2], 0.24 µM.
With `O=C1N[C@@H]2C[C@@H](S(=O)(=O)NCCC3CCN(Cc4ccccc4)CC3)[C@@H]2c2c(Cl)cccc21`, the outcome in the data set with Mus musculus [6], with Mus musculus [7] and in the data set on Mus musculus [9] was Active. For the same compound, the Papp at 18 h in data set [1] was 13.1 ×10⁻⁶ cm/s. In addition, the Activity in the data set with PC-12 worked out at 77.2%. The IC50 against Acetylcholinesterase [5] was 0.099 µM; on Acetylcholinesterase [2], 0.094 µM. For the same compound, the Ki at Acetylcholinesterase [8] is 0.128 µM.
On to `CN1C(=O)C(F)=C[C@@H]2[C@H]1C[C@@]2(Br)S(=O)(=O)F`, for which the IC50 against Cholinesterase turned out to be 14 µM.
With `CCCNS(=O)(=O)[C@@H]1C[C@@H]2[C@H]1C=C(F)C(=O)N2C`, the IC50 stood at 5.59 µM on Acetylcholinesterase [5] and 6.78 µM against Acetylcholinesterase [2].
Consider `CN1C(=O)C(F)=C[C@@H]2[C@H]1C[C@H]2S(=O)(=O)NCCC1CCN(Cc2ccccc2)CC1`, for which the Papp at 18 h in data set [1] was 12.3 ×10⁻⁶ cm/s. The IC50 against Acetylcholinesterase [5] came to 0.34 µM; on Acetylcholinesterase [2] it was 0.38 µM.
`CN1C(=O)C(F)=C[C@@H]2[C@H]1C[C@H]2S(=O)(=O)NCCc1ccc(F)cc1`: the IC50 worked out at 3.37 µM at Acetylcholinesterase [5] and 4.56 µM on Acetylcholinesterase [2].
With `CN1C(=O)C(F)=C[C@@H]2[C@H]1C[C@H]2S(=O)(=O)NCCc1ccccc1F`, the IC50 against Acetylcholinesterase [5] stood at 12.5 µM; at Acetylcholinesterase [2] it was 10.8 µM.
Take `CC(=O)[C@H]1CC[C@H]2[C@@H]3CCC4=CC(=O)CC[C@]4(C)[C@H]3CC[C@]12C` [PROGESTERONE]: the Papp at 18 h in data set [1] was 16.4 ×10⁻⁶ cm/s.

Values taken from ChEMBL document CHEMBL5620356, “Sulfur-fluoride exchange (SuFEx)-enabled lead discovery of AChE inhibitors by fragment linking strategies” (Eur J Med Chem, 2023).
